Source: publication doi:10.1101/2023.09.29.560149v2 (biorxiv, 2024)

How the values were obtained:
in vitro [1] = details: african green monkey, vero cells
in vitro [2] = details: hamster, bhk-21 cells
Chikungunya virus CHIKV = test: microbe, parasite or virus in culture; details: Vero, 24 h, read-out: CHIKV EC50 (µM)
Sindbis virus SINV = test: microbe, parasite or virus in culture; details: Vero, 24 h, read-out: SINV EC50 (µM)

Structure (SMILES)	CC50 at 24 h (in vitro [1]) [µM]	CC50 at 24 h (in vitro [2]) [µM]	EC50 (Chikungunya virus CHIKV) [µM]	EC50 (Sindbis virus SINV) [µM]
C[C@H]1CC[C@]2(NC1)O[C@H]1C[C@H]3[C@@H]4CC[C@H]5C[C@@H](O)CC[C@]5(C)[C@H]4CC[C@]3(C)[C@H]1[C@@H]2C [Tomatidine]	17.2	23.8	5.35	2.47
O=C1Nc2ccc(Cl)cc2[C@@](C#CC2CC2)(C(F)(F)F)O1 [efavirenz]	53.6	40.9	1.33	0.72
